Measurements reported in patent publication US20260265832A1, “ADAR1 INHIBITORS FOR TREATING CANCER” (INSTITUE OF CANCER RESEARCH ROYAL CANCER HOSPITAL, priority 2023, published 2026).

Experiments:
Brca1-mutant (Δ11) MEFs = experiment: Clonogenic survival and dose-response survival with 8-azaadenosine; type: cell-based, mouse; settings: MEF Brca1-Δ11 vs Brca1-wildtype; 8 days clonogenic, 7 days dose-response
Excerpt: (§1) FIG. 7. A. Clonogenic survival of Brca1-wildtype and Brca1-mutant (Δ11) MEFs exposed to 8-azaadenosine for 8 days. B. Dose-response survival curves of Brca1-wildtype and Brca1-mutant (Δ11) MEFs exposed to increasing concentrations of 8-azaadenosine for 7 days. C. Clonogenic survival of BRCA2-wildtype and BRCA2-knockout DLD1 cells exposed to 8-azaadenosine for 8 days. D. Dose-response survival curves of BRCA2-wildtype and BRCA2-knockout DLD1 cells exposed to increasing concentrations of 8-azaadenosine for 7 days. All graphs show median. Error bars represent Standard Deviation (SD).

[1] = tested on: BRCA2-knockout DLD1 cells; experiment: as above; type: cell-based; settings: DLD1 BRCA2-KO vs BRCA2-wildtype; 8 days clonogenic, 7 days dose-response
Excerpt: as §1

Q: How did the “BRCA1 synthetic lethality (clonogenic survival, dose-response survival)” value (Brca1-mutant (Δ11) MEFs) turn out when `Nc1ncnc2c1nnn2[C@@H]1O[C@H](CO)[C@@H](O)[C@H]1O` [8-azaadenosine, 3-(β-D-Ribofuranosyl)-3H-[1,2,3]triazolo[4,5-d]pyrimidin-7-amine] was run?
A: elicited BRCA1 synthetic lethality

Q: What about the “BRCA2 synthetic lethality (clonogenic survival, dose-response survival)” value [1] of the same compound?
A: BRCA2 synthetic lethality
